Assay results published in the NIST ThermoML archive (doi:10.1016/j.jct.2012.04.018).
“And” between values parts separate entries of the source, which are not always exact repeats. Equal values may be shown once.

Legend:
[1] = heat capacity at constant pressure per volume; xn = mol fraction of the nth substance listed; details: 101 kPa, Liquid, DSC, calvet, x2 = 0.44
[2] = refractive index (other wavelength) (dimensionless); xn = mol fraction of the nth substance listed; details: 290.9 K, 101 kPa, Liquid, Wavelength=632.8 nm, He-Ne laser

N#Cc1ccccc1 [benzonitrile] + CCCCCCCCCCC
Details	heat capacity	refractive index
[1], 286.54 K	1846500 J/K/m3	–
[1], 286.76 K	1854000 J/K/m3	–
[1], 286.99 K	1862200 J/K/m3	–
[1], 287.22 K	1857300 J/K/m3	–
[1], 287.45 K	1862800 J/K/m3	–
[1], 287.68 K	1867600 J/K/m3	–
[1], 287.91 K	1870300 J/K/m3	–
[1], 288.14 K	1878500 J/K/m3	–
[1], 288.37 K	1879100 J/K/m3	–
[1], 288.6 K	1887700 J/K/m3	–
[1], 288.83 K	1896600 J/K/m3	–
[1], 288.94 K	1895600 J/K/m3	–
[1], 289.06 K	1899000 J/K/m3	–
[1], 289.17 K	1913500 J/K/m3	–
[1], 289.29 K	1889000 J/K/m3	–
[1], 289.4 K	1931900 J/K/m3	–
[1], 289.43 K	1910800 J/K/m3	–
[1], 289.46 K	1918000 J/K/m3	–
[1], 289.5 K	1946800 J/K/m3	–
[1], 289.53 K	1960500 J/K/m3	–
[1], 289.56 K	1952300 J/K/m3	–
[1], 289.6 K	1953700 J/K/m3	–
[1], 289.63 K	1973800 J/K/m3	–
[1], 289.67 K	1984300 J/K/m3	–
[1], 289.7 K	1990700 J/K/m3	–
[1], 289.74 K	1995400 J/K/m3	–
[1], 289.75 K	2003100 J/K/m3	–
[1], 289.77 K	2011400 J/K/m3	–
[1], 289.78 K	2022500 J/K/m3	–
[1], 289.79 K	2035800 J/K/m3	–
[1], 289.8 K	2046300 J/K/m3	–
[1], 289.81 K	2053900 J/K/m3	–
[1], 289.82 K	2063600 J/K/m3	–
[1], 289.83 K	2084100 J/K/m3	–
[1], 289.85 K	2111800 J/K/m3	–
[1], 289.86 K	2155800 J/K/m3 and 2141800 J/K/m3 and 2104500 J/K/m3	–
[1], 289.87 K	2067700 J/K/m3 and 2029900 J/K/m3 and 1997600 J/K/m3	–
[1], 289.88 K	1943900 J/K/m3 and 1858200 J/K/m3	–
[1], 289.89 K	1823500 J/K/m3	–
[1], 289.9 K	1809500 J/K/m3	–
[1], 289.92 K	1795800 J/K/m3	–
[1], 289.93 K	1786900 J/K/m3	–
[1], 289.94 K	1780500 J/K/m3	–
[1], 289.95 K	1778700 J/K/m3	–
[1], 289.98 K	1770500 J/K/m3	–
[1], 290.01 K	1757500 J/K/m3	–
[1], 290.04 K	1756200 J/K/m3	–
[1], 290.06 K	1746900 J/K/m3	–
[1], 290.09 K	1748200 J/K/m3	–
[1], 290.12 K	1747000 J/K/m3	–
[1], 290.15 K	1739100 J/K/m3	–
[1], 290.18 K	1736600 J/K/m3	–
[1], 290.21 K	1740600 J/K/m3	–
[1], 290.24 K	1732400 J/K/m3	–
[1], 290.27 K	1728300 J/K/m3	–
[1], 290.44 K	1721500 J/K/m3	–
[1], 290.64 K	1711900 J/K/m3	–
[1], 290.84 K	1707300 J/K/m3	–
[1], 291.04 K	1702300 J/K/m3	–
[1], 291.24 K	1698500 J/K/m3	–
[1], 291.44 K	1694500 J/K/m3	–
[1], 291.64 K	1693500 J/K/m3	–
[1], 291.85 K	1691400 J/K/m3	–
[1], 292.05 K	1688200 J/K/m3	–
[1], 292.25 K	1688500 J/K/m3	–
[1], 292.45 K	1685900 J/K/m3	–
[1], 292.65 K	1684300 J/K/m3	–
[1], 292.85 K	1683400 J/K/m3	–
[1], 293.19 K	1682100 J/K/m3	–
[1], 293.43 K	1680500 J/K/m3	–
[1], 293.65 K	1678500 J/K/m3	–
[1], 293.88 K	1679000 J/K/m3	–
[1], 294.11 K	1678400 J/K/m3	–
[1], 294.34 K	1676100 J/K/m3	–
[1], 294.57 K	1675700 J/K/m3	–
[1], 294.8 K	1675100 J/K/m3	–
[1], 295.11 K	1673900 J/K/m3	–
[1], 295.85 K	1672100 J/K/m3	–
[1], 296.59 K	1670800 J/K/m3	–
[1], 297.34 K	1670100 J/K/m3	–
[1], 298.08 K	1669100 J/K/m3	–
[1], 298.82 K	1667900 J/K/m3	–
[1], 299.57 K	1667300 J/K/m3	–
[1], 300.31 K	1667200 J/K/m3	–
[1], 301.05 K	1666300 J/K/m3	–
[1], 301.8 K	1666200 J/K/m3	–
[1], 302.54 K	1665900 J/K/m3	–
[1], 303.29 K	1665200 J/K/m3	–
[1], 304.03 K	1665100 J/K/m3	–
[1], 304.77 K	1665400 J/K/m3	–
[1], 305.52 K	1665600 J/K/m3	–
[1], 306.26 K	1665000 J/K/m3	–
[1], 307 K	1664800 J/K/m3	–
[1], 307.75 K	1665500 J/K/m3	–
[1], 308.49 K	1665600 J/K/m3	–
[1], 309.23 K	1665400 J/K/m3	–
[1], 309.98 K	1665500 J/K/m3	–
[1], 310.72 K	1665900 J/K/m3	–
[1], 311.46 K	1666400 J/K/m3	–
[1], 312.21 K	1666000 J/K/m3	–
[1], 312.95 K	1665700 J/K/m3	–
[1], 313.69 K	1666100 J/K/m3	–
[1], 314.44 K	1667100 J/K/m3	–
[1], 315.18 K	1666800 J/K/m3	–
[1], 315.92 K	1667700 J/K/m3	–
[1], 316.67 K	1668100 J/K/m3	–
[1], 317.41 K	1667700 J/K/m3	–
[1], 318.15 K	1667700 J/K/m3	–
[1], 318.9 K	1668700 J/K/m3	–
[1], 319.64 K	1667900 J/K/m3	–
[1], 320.69 K	1668700 J/K/m3	–
[1], 321.75 K	1669700 J/K/m3	–
[1], 322.8 K	1669700 J/K/m3	–
[1], 323.86 K	1670100 J/K/m3	–
[1], 324.91 K	1671400 J/K/m3	–
[2], x2 = 0.133	–	1.5005
[2], x2 = 0.212	–	1.4877
[2], x2 = 0.336	–	1.4708
[2], x2 = 0.42	–	1.4607
[2], x2 = 0.512	–	1.4513
[2], x2 = 0.606	–	1.443
[2], x2 = 0.704	–	1.4351
[2], x2 = 0.799	–	1.4285
[2], x2 = 0.902	–	1.4222
